In patent US20200404909A1, “Fatty acid derivatives for use as herbicides” (Clariant International Ltd., priority 2018, published 2020):

Assays:
[1] = Volatility from spray deposit on non-permeable leaf cuticles; assay type: physicochemical; conditions: pelargonic acid 30 g/L, Vorox 130 g/L
Procedure: (§1) The volatility of the test substances from the spray deposit was measured time dependent. All measurements have been carried out using a concentration of 50 g/L of the test substances in the application solution. The reference pelargonic acid was used at a concentration of 30 g/L and the commercial benchmark Vorox was applied at a concentration of 130 g/L. The […] drop volumes of 10 μl of the spray liquids which amounts to 500 μg of test substance were then applied on two different substrates. An inert wettable synthetic substrates and non-permeable leaf cuticles were used as substrates. […] After evaporation of drop water, the substrates were weighed to obtain the initial weight and placed under a sealed box with defined air suction output volume of 30 m^3/h. The volatility has been determined after the desired measurement time of 4 h, 24 h and 48 h by weighing of the substrates to obtain the remaining weight of the test substances. The fraction of remaining test substance in % is obtained by the ratio of remaining test substance compared to the initial weight of test substance. The volatilized amount was calculated by subtraction of the remaining test substance of the initial applied amount. The volatilized fraction of test substance in % is obtained by the ratio of volatilized test substance compared to the initial weight of test substance. A substrate without test substance is used as reference to account for changes in environmental conditions such as humidity. Concentrations used are based on ca. 3% pelargonic acid equivalent

[2] = Spray liquids in water: appearance and stability after 24 h; assay type: physicochemical; conditions: for Appearance: spray liquid in water, after 24 h
Procedure: The inventive compounds were used to make spray liquids at relevant use concentration. These spray liquids are produced by mixing the various test substances in water, and the appearance and stability of the spray liquid were assessed after 24 h.
The inventive compounds can be used as 100% substances without need for additional additives or formulation aids to obtain stable spray liquids. They are either water soluble and form clear homogeneous spray liquid or self-emulsifying in the spray liquid and form cloudy homogeneous emulsions that are stable over 24 h. […] Stable spray liquids can only be achieved with pelargonic acid when they are formulated with appropriate emulsifiers and other formulation aids like in the commercial benchmark Vorox.

[3] = Volatility from spray deposit on inert wettable synthetic substrates; assay type: physicochemical; conditions: pelargonic acid 30 g/L, Vorox 130 g/L
Procedure: as §1

[4] = test system: monocotyledonous and dicotyledonous harmful plants (ABUTH, ALOMY, AMARE, DIGSA, ERICA, LOLPE, SOLNI, VIOAR); test: Greenhouse trials, post emergence herbicidal activity (percent control); assay type: in vivo; conditions: 5-20% w/v of applied substances, spray volume 500-1000 liters per hectare, broadcast foliar method
Excerpt: Standard post emergence herbicide application procedures were used, as described below, to apply inventive compounds and formulations listed in the tables 1 and 2, as well as the reference materials.
Seed of monocotyledonous and dicotyledonous harmful plants such as Abutilon theophrasti (ABUTH), Alopecurus myosuroides (ALOMY), Amaranthus retroflexus (AMARE), Digitaria Sanguinalis (DIGSA), Erigeron canadensis (ERICA), Lolium perenne (LOLPE), Solanun nigrum (SOLNI), Viola arvensis (VIOAR) were sowed in 18 cm^2 pots. The plants were placed in a greenhouse under controlled environmental conditions, and sub-irrigation. About one week after emergence, seedlings were thinned as needed, including removal of any unhealthy or abnormal plants, to create a uniform series of test pots.
The plants were maintained for the duration of the test in the greenhouse, where they received a mean of 70 μmol m^−2 s^−1 of light per day/night. Temperatures averages about 24° C. during the day and about 20° C. during the night. Plants were sub-irrigated throughout the test to ensure adequate soil moisture levels.
Pots were assigned to different treatment in a randomized experimental design. A set of pots was left untreated as a reference against which effects of the treatments could later be evaluated. Applications of tested formulations were made in a spray cabin model SPK B CT02 designed by CheckTec using the following parameters: • nozzle Lechler LU-120-08, 1000 L/ha, 3 bars, 0.56 m/s • nozzle Lechler LU-120-06, 500 L/ha, 3 bars, 0.7 m/s.
The distance of the nozzle from the plants was between 50 to 53 cms.
After treatment, pots were returned to the greenhouse until ready for evaluation (6 hours after treatment (6HAT), 1 day after treatment (1DAT), and 2 days after treatment (2DAT).
For evaluation of herbicidal effectiveness, all plants in the test were examined by a single technician, who recorded percent control, a visual measurement of the effectiveness of each treatment by comparison with untreated plants. […] The reported % control values represent the average for all replicates of each treatment.

[5] = test system: Fruit trees (apple trees); test: Plant growth regulator activity: blossom thinning in orchards (greenhouse and field trial); assay type: in vivo; conditions: A1 diluted in water 1-10%, about 2 to about 15 liters per apple tree
Excerpt: Fruit trees were sprayed with substance A1 (Pelargonic acid 6 EO ester methyl ether), several days before the expected full blossoming in the greenhouse, and also in a field trial to test the blossom thinning, which is used to increase the fruit production.
Plots (3 trees per plot in field trials; 1 tree per plot in greenhouse) were assigned to different treatments in a randomized experimental design. One plot was left untreated as a reference against which effects of the treatments could later be evaluated.
The test substance A1 was diluted in water in a range of 1-10% and the spray solution was sprayed in an amount of about 2 to about 15 liters per apple tree (height: about 2-2.5 m, width: about 1-1.5 m). The Application was made with a high-pressure power backpack sprayer manufactured by SOLO® Kleinmotoren GmbH.
The treated trees were evaluated regarding flower thinning effect, but also regarding undesired effects by chemical injury such as leaf browning, leaf malformation, etc.

[6] = pH 4, 4 h, test substances 50 g/L
[7] = pH 4, 24 h, test substances 50 g/L
[8] = pH 4, 48 h, test substances 50 g/L

Compound: CCCCCCCCC(=O)OCCOCCOCCOCCOCCOCCOC [A1, Pelargonic acid 6 EO ester methyl ether]
- Volatilized fraction 4 h [1, 6]: 1.5%
- Volatilized fraction 24 h [1, 7]: 4.8%
- Volatilized fraction 48 h [1, 8]: 5.2%
- Appearance ([2]; amount 5.0 % by wt.): Clear solution
- Volatilized fraction 4 h [3, 6]: −0.2%
- Volatilized fraction 24 h [3, 7]: 0.6%
- Volatilized fraction 48 h [3, 8]: 1.2%
- herbicidal activity against a plurality of the harmful plants [4]: moderately effective to highly effective
- herbicidal activity against several, in particular three or more, of the mentioned harmful plants [4]: highly effective
- undesired effects by chemical injury (leaves, branches, tree) ([5]; evaluated after treatment): without significantly harming the tree
- flower thinning effect ([5]; sprayed several days before full blossoming): excellent results as flower thinning agent

Compound: CCCCCCCCC(=O)OCCOCCOCCOCCOCCOCCOCCOCCOC [A2, Pelargonic acid 8 EO ester methyl ether]
- Volatilized fraction 4 h [1, 6]: 1.7%
- Volatilized fraction 24 h [1, 7]: 2.1%
- Volatilized fraction 48 h [1, 8]: 2.8%
- Appearance ([2]; amount 0.3 % by wt.): Clear solution
- Appearance ([2]; amount 5.0 % by wt.): Clear solution
- Volatilized fraction 4 h [3, 6]: −0.3%
- Volatilized fraction 24 h [3, 7]: 0.2%
- Volatilized fraction 48 h [3, 8]: 0.4%
- herbicidal activity against a plurality of the harmful plants [4]: moderately effective to highly effective

Compound: CCCCCCCCC(=O)OCCOCCOCCOCCOC(C)COCCOCCOC (stereo not shown) [A3, Pelargonic acid 1 PO 6 EO ester methyl ether]
- herbicidal activity against a plurality of the harmful plants [4]: moderately effective to highly effective

Compound: CCCCCCCCC(=O)OC(C)COCCOCCOC (stereo not shown) [A4, Pelargonic acid 1 PO 2 EO ester methyl ether]
- herbicidal activity against a plurality of the harmful plants [4]: moderately effective to highly effective
- herbicidal activity against several, in particular three or more, of the mentioned harmful plants [4]: highly effective

Compound: CCCCCCCCCCOCCOCCOCCOCCOCCOC(=O)CCCCCCCC [A9, Pelargonic acid 5 EO ester decyl ether]
- Volatilized fraction 4 h [1, 6]: 8.6%
- Volatilized fraction 24 h [1, 7]: 11.7%
- Volatilized fraction 48 h [1, 8]: 22.8%
- Volatilized fraction 4 h [3, 6]: 0.3%
- Volatilized fraction 24 h [3, 7]: 1.2%
- Volatilized fraction 48 h [3, 8]: 1.9%
- herbicidal activity against a plurality of the harmful plants [4]: moderately effective to highly effective

Compound: CCCCCCCCC(=O)OCCOCCOCCOCCCCCC [A10, Pelargonic acid 3 EO ester hexyl ether]
- Volatilized fraction 4 h [1, 6]: 6.2%
- Volatilized fraction 24 h [1, 7]: 14.7%
- Volatilized fraction 48 h [1, 8]: 18.9%
- Volatilized fraction 4 h [3, 6]: 0.9%
- Volatilized fraction 24 h [3, 7]: 4.4%
- Volatilized fraction 48 h [3, 8]: 7.2%
- herbicidal activity against a plurality of the harmful plants [4]: moderately effective to highly effective

Compound: C=CCCCCCCCC(=O)OCCOCCOCCOCCOCCOCCOC [A11, Dec-9-enoic acid 6 EO ester methyl ether]
- herbicidal activity against a plurality of the harmful plants [4]: moderately effective to highly effective

Compound: CC(CC(=O)O)CC(C)(C)C (stereo not shown) [A13, 3,5,5-trimethylhexanoic acid]
- herbicidal activity against a plurality of the harmful plants [4]: moderately effective to highly effective

Compound: CCCCCCCCCCC(=O)OCCOCCOCCOCCOCCOCCOC [A15, Undecanoic acid 6 EO ester methyl ether]
- herbicidal activity against a plurality of the harmful plants [4]: moderately effective to highly effective

Compound: CCCCCCCCC(=O)OCCOCCOCCOCCOCCOCCOCC [A16, Pelargonic acid 6 EO ester ethyl ether]
- herbicidal activity against a plurality of the harmful plants [4]: moderately effective to highly effective

Compound: CCCCCCCCC(=O)OCCOCCOCCOCCOCCOCCOC(=O)CCCCCCCC [A17, Pelargonic acid 6 EO diester, reference compound]
- Volatilized fraction 4 h [1, 6]: 0.6%
- Volatilized fraction 24 h [1, 7]: 1.5%
- Volatilized fraction 48 h [1, 8]: 0.6%
- Volatilized fraction 4 h [3, 6]: 0.6%
- Volatilized fraction 24 h [3, 7]: 1.0%
- Volatilized fraction 48 h [3, 8]: 1.3%

Compound: CCCCCCCCC(=O)OCCOCCOCCOCCOCCOCCOCCOCCOC(=O)CCCCCCCC [A18, Pelargonic acid 8 EO diester, reference compound]
- Volatilized fraction 4 h [1, 6]: 0.6%
- Volatilized fraction 24 h [1, 7]: 1.7%
- Volatilized fraction 48 h [1, 8]: 4.0%
- Volatilized fraction 4 h [3, 6]: 0.5%
- Volatilized fraction 24 h [3, 7]: 0.7%
- Volatilized fraction 48 h [3, 8]: 0.9%

Compound: CCCCCCCCC(=O)O [Pelargonic acid, reference compound]
- Volatilized fraction 4 h [1, 6]: 55.7%
- Volatilized fraction 24 h [1, 7]: 78.9%
- Volatilized fraction 48 h [1, 8]: 80.6%
- Volatilized fraction 4 h ([1]; pH 7, 4 h): 29.2%
- Volatilized fraction 24 h ([1]; pH 7, 24 h): 33.8%
- Volatilized fraction 48 h ([1]; pH 7, 48 h): 35.3%
- stability of spray liquid ([2]; 100% substances in water without additional additives or formulation aids): phase separate immediately
- Appearance ([2]; amount 0.3 % by wt.): 2 clear phases
- Appearance ([2]; amount 5.0 % by wt.): 2 clear phases
- Volatilized fraction 4 h [3, 6]: 3.9%
- Volatilized fraction 24 h [3, 7]: 19.1%
- Volatilized fraction 48 h [3, 8]: 35.2%
- Volatilized fraction 4 h ([3]; pH 7, 4 h): 7.3%
- Volatilized fraction 24 h ([3]; pH 7, 24 h): 21.3%
- Volatilized fraction 48 h ([3]; pH 7, 48 h): 27.9%
- herbicidal activity against a plurality of the harmful plants [4]: moderately effective to highly effective

Compound: C8/C10 fatty acid 4 EO ester methyl ether [A5]
- herbicidal activity against a plurality of the harmful plants [4]: moderately effective to highly effective

Compound: C8/C10 fatty acid 6 EO ester methyl ether [A6]
- Appearance ([2]; amount 5.0 % by wt.): Clear solution
- herbicidal activity against a plurality of the harmful plants [4]: moderately effective to highly effective

Compound: C12/C14 fatty acid 3 EO ester methyl ether [A7]
- herbicidal activity against a plurality of the harmful plants [4]: moderately effective to highly effective

Compound: C12/C14 fatty acid 5 EO ester methyl ether [A8]
- herbicidal activity against a plurality of the harmful plants [4]: moderately effective to highly effective

Compound: Dodec-9-enoic acid 3 EO ester methyl ether [A12]
- herbicidal activity against a plurality of the harmful plants [4]: moderately effective to highly effective

Compound: Dodecanoic acid 6 EO ester methyl ether [A14]
- herbicidal activity against a plurality of the harmful plants [4]: moderately effective to highly effective
